# Experimental data as given in the supplement of paper PMC4862054.
# Test system: MDA-MB-231
# Assay: normalised response (% of control), CellTiter-Glo; higher = more viable cells (100 = DMSO, 0 = benzethonium chloride kill control)
# Settings: incubation time: 72 h
# Procedure, shortened: (§1)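 Normalised signals at single concentrations make up the values. They come from breast cancer cell lines seeded (20 µl suspension) into 384-well plates with compound at 5 concentrations in 10-fold steps over a compound-specific 10,000-fold range, incubated 72 h, and read for CellTox Green fluorescence then CellTiter-Glo luminescence. Each plate was normalised to 0.1 % DMSO (100) and a positive kill control (0).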
row,SMILES,normalised response [%]
1,COc1nc(N)nc2c1ncn2[C@@H]1O[C@H](CO)[C@@H](O)[C@@H]1O [Nelarabine] (10 nM),97.4
2,Cc1ccc(Nc2nccc(N(C)c3ccc4c(C)n(C)nc4c3)n2)cc1S(N)(=O)=O [Pazopanib] (1 nM),96.8
3,CS(=O)(=O)N1CCN(Cc2cc3nc(-c4cccc5[nH]ncc45)nc(N4CCOCC4)c3s2)CC1 [Pictilisib] (10 nM),94.2
4,O=C(NC[C@H](O)CO)c1ccncc1Nc1ccc(I)cc1F [Pimasertib] (1 nM),105
5,O=C(CCBr)N1CCN(C(=O)CCBr)CC1 [Pipobroman] (1 nM),97.8
6,O=C(CCBr)N1CCN(C(=O)CCBr)CC1 [Pipobroman] (10 nM),98.2
7,c1cc(CN2CCCNCCNCCCNCC2)ccc1CN1CCCNCCNCCCNCC1 [Plerixafor] (1 nM),96.9
8,C[C@]12C=CC(=O)C=C1CC[C@@H]1[C@@H]2[C@@H](O)C[C@@]2(C)[C@H]1CC[C@]2(O)C(=O)CO [Prednisolone] (1 nM),102
9,C[C@]12C=CC(=O)C=C1CC[C@@H]1[C@@H]2[C@@H](O)C[C@@]2(C)[C@H]1CC[C@]2(O)C(=O)CO [Prednisolone] (10 nM),108
10,Cn1cc(CNCC2CCN(c3ncc(C(=O)NO)cn3)CC2)c2ccccc21 [Quisinostat] (0.1 nM),106
11,Cn1cc(CNCC2CCN(c3ncc(C(=O)NO)cn3)CC2)c2ccccc21 [Quisinostat] (1 nM),101

# Test system: MDA-MB-468
# Assay: as above
# Settings: incubation time: 72 h
# Procedure, shortened: as §1
row,SMILES,normalised response [%]
1,Cc1c(CN2CCN(C(=O)[C@H](C)O)CC2)sc2c(N3CCOCC3)nc(-c3cnc(N)nc3)nc12 [GDC-0980] (1 nM),108
2,Cc1c(CN2CCN(C(=O)[C@H](C)O)CC2)sc2c(N3CCOCC3)nc(-c3cnc(N)nc3)nc12 [GDC-0980] (10 nM),113
3,Cc1cccc(-c2nn3c(c2-c2ccnc4ccc(C(N)=O)cc24)CCC3)n1 [Galunisertib] (0.1 nM),116
4,Nc1cccc2c1CN(C1CCC(=O)NC1=O)C2=O (stereo not given) [Lenalidomide] (1 nM),110
5,Nc1cccc2c1CN(C1CCC(=O)NC1=O)C2=O (stereo not given) [Lenalidomide] (10 nM),105
6,C[C@]12O[C@H](C[C@]1(O)CO)n1c3ccccc3c3c4c(c5c6ccccc6n2c5c31)CNC4=O [Lestaurtinib] (0.1 nM),95.8
7,O=C1c2c(O)ccc(O)c2C(=O)c2c(NCCNCCO)ccc(NCCNCCO)c21 [Mitoxantrone] (0.1 nM),97.8
8,O=C1c2c(O)ccc(O)c2C(=O)c2c(NCCNCCO)ccc(NCCNCCO)c21 [Mitoxantrone] (1 nM),100
9,Nc1ccccc1NC(=O)c1ccc(CNc2nccc(-c3cccnc3)n2)cc1 [Mocetinostat] (1 nM),101
10,COc1nc(N)nc2c1ncn2[C@@H]1O[C@H](CO)[C@@H](O)[C@@H]1O [Nelarabine] (1 nM),84
11,COc1nc(N)nc2c1ncn2[C@@H]1O[C@H](CO)[C@@H](O)[C@@H]1O [Nelarabine] (10 nM),90.5
12,Cc1ccc(Nc2nccc(N(C)c3ccc4c(C)n(C)nc4c3)n2)cc1S(N)(=O)=O [Pazopanib] (1 nM),106
13,CS(=O)(=O)N1CCN(Cc2cc3nc(-c4cccc5[nH]ncc45)nc(N4CCOCC4)c3s2)CC1 [Pictilisib] (10 nM),101
14,O=C(NC[C@H](O)CO)c1ccncc1Nc1ccc(I)cc1F [Pimasertib] (1 nM),97.5
15,O=C(CCBr)N1CCN(C(=O)CCBr)CC1 [Pipobroman] (1 nM),105
16,O=C(CCBr)N1CCN(C(=O)CCBr)CC1 [Pipobroman] (10 nM),108
17,c1cc(CN2CCCNCCNCCCNCC2)ccc1CN1CCCNCCNCCCNCC1 [Plerixafor] (1 nM),97.3
18,C[C@]12C=CC(=O)C=C1CC[C@@H]1[C@@H]2[C@@H](O)C[C@@]2(C)[C@H]1CC[C@]2(O)C(=O)CO [Prednisolone] (1 nM),106
19,C[C@]12C=CC(=O)C=C1CC[C@@H]1[C@@H]2[C@@H](O)C[C@@]2(C)[C@H]1CC[C@]2(O)C(=O)CO [Prednisolone] (10 nM),105
20,Cn1cc(CNCC2CCN(c3ncc(C(=O)NO)cn3)CC2)c2ccccc21 [Quisinostat] (0.1 nM),109
21,Cn1cc(CNCC2CCN(c3ncc(C(=O)NO)cn3)CC2)c2ccccc21 [Quisinostat] (1 nM),97

# Test system: HCC1143
# Assay: as above
# Settings: incubation time: 72 h
# Procedure, shortened: as §1
row,SMILES,normalised response [%]
1,Cc1c(CN2CCN(C(=O)[C@H](C)O)CC2)sc2c(N3CCOCC3)nc(-c3cnc(N)nc3)nc12 [GDC-0980] (1 nM),96.7
2,Cc1c(CN2CCN(C(=O)[C@H](C)O)CC2)sc2c(N3CCOCC3)nc(-c3cnc(N)nc3)nc12 [GDC-0980] (10 nM),106
3,Cc1cccc(-c2nn3c(c2-c2ccnc4ccc(C(N)=O)cc24)CCC3)n1 [Galunisertib] (0.1 nM),110
4,Nc1cccc2c1CN(C1CCC(=O)NC1=O)C2=O (stereo not given) [Lenalidomide] (1 nM),93.1
5,Nc1cccc2c1CN(C1CCC(=O)NC1=O)C2=O (stereo not given) [Lenalidomide] (10 nM),105
6,C[C@]12O[C@H](C[C@]1(O)CO)n1c3ccccc3c3c4c(c5c6ccccc6n2c5c31)CNC4=O [Lestaurtinib] (0.1 nM),99.6
7,O=C1c2c(O)ccc(O)c2C(=O)c2c(NCCNCCO)ccc(NCCNCCO)c21 [Mitoxantrone] (0.1 nM),104
8,O=C1c2c(O)ccc(O)c2C(=O)c2c(NCCNCCO)ccc(NCCNCCO)c21 [Mitoxantrone] (1 nM),98.3
9,Nc1ccccc1NC(=O)c1ccc(CNc2nccc(-c3cccnc3)n2)cc1 [Mocetinostat] (1 nM),96.7
10,COc1nc(N)nc2c1ncn2[C@@H]1O[C@H](CO)[C@@H](O)[C@@H]1O [Nelarabine] (1 nM),92.3
11,COc1nc(N)nc2c1ncn2[C@@H]1O[C@H](CO)[C@@H](O)[C@@H]1O [Nelarabine] (10 nM),96.2
12,Cc1ccc(Nc2nccc(N(C)c3ccc4c(C)n(C)nc4c3)n2)cc1S(N)(=O)=O [Pazopanib] (1 nM),97.4
13,CS(=O)(=O)N1CCN(Cc2cc3nc(-c4cccc5[nH]ncc45)nc(N4CCOCC4)c3s2)CC1 [Pictilisib] (10 nM),99.8
14,O=C(NC[C@H](O)CO)c1ccncc1Nc1ccc(I)cc1F [Pimasertib] (1 nM),93.2
15,O=C(CCBr)N1CCN(C(=O)CCBr)CC1 [Pipobroman] (1 nM),99.4
16,O=C(CCBr)N1CCN(C(=O)CCBr)CC1 [Pipobroman] (10 nM),100
17,c1cc(CN2CCCNCCNCCCNCC2)ccc1CN1CCCNCCNCCCNCC1 [Plerixafor] (1 nM),98.7
18,C[C@]12C=CC(=O)C=C1CC[C@@H]1[C@@H]2[C@@H](O)C[C@@]2(C)[C@H]1CC[C@]2(O)C(=O)CO [Prednisolone] (1 nM),96.9
